{
  "source": "ChEMBL document CHEMBL5465560",
  "about": "“Selectivity Literature for EUbOPEN Chemogenomic Library” (2024)",
  "key": {"[1]": {"target": "MAP kinase-interacting serine/threonine-protein kinase 2 (Homo sapiens, UniProt Q9HBH9)", "assay": "Selectivity interaction (LanthaScreen Eu Kinase Binding Assay) EUB0001632a MKNK2", "settings": "at 10 µM"}, "[2]": {"target": "Calcium/calmodulin-dependent protein kinase type II subunit beta (Homo sapiens) (UniProt Q13554)", "assay": "Selectivity interaction (Kinase panel (Z-LYTE Assay)) EUB0001632a CAMK2B", "settings": "at 10 µM"}, "[3]": {"target": "Serine/threonine-protein kinase PAK 4 (Homo sapiens, UniProt O96013)", "sequence (O96013 whole entry, looked up)": "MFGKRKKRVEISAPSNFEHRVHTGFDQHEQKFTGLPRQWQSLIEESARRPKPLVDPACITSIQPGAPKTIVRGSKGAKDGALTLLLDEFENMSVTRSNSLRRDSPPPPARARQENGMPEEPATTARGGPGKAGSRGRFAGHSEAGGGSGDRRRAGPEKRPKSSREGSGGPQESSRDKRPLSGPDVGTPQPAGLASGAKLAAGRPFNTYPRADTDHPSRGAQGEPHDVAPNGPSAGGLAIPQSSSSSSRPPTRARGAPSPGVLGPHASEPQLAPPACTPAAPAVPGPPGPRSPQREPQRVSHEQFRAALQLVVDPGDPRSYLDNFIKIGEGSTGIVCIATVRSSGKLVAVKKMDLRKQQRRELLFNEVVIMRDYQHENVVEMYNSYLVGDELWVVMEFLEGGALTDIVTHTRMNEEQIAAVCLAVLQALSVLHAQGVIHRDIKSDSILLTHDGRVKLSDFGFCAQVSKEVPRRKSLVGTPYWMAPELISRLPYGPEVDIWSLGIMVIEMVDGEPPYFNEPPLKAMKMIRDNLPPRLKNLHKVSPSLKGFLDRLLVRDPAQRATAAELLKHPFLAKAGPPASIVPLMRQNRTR", "assay": "Selectivity interaction (SelectScreen profiling (Invitrogen)) EUB0000607a PAK4", "settings": "at 2 µM"}, "[4]": {"target": "Serine/threonine-protein kinase 16 (Homo sapiens, UniProt O75716)", "sequence (O75716 whole entry)": "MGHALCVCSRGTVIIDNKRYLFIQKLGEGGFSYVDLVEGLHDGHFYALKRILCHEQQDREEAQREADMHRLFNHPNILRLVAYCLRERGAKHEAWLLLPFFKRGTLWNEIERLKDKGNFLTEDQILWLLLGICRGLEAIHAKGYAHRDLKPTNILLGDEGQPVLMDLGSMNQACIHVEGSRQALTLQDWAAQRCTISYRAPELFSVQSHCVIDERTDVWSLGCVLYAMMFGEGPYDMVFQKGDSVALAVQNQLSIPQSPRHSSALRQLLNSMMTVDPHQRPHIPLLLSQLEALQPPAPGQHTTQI", "assay": "Selectivity interaction (KinomeScan (DiscoverX)) EUB0000607a STK16", "settings": "at 10 µM"}, "[5]": {"target": "Mitogen-activated protein kinase 8 (Homo sapiens, UniProt P45983)", "sequence (P45983 whole entry)": "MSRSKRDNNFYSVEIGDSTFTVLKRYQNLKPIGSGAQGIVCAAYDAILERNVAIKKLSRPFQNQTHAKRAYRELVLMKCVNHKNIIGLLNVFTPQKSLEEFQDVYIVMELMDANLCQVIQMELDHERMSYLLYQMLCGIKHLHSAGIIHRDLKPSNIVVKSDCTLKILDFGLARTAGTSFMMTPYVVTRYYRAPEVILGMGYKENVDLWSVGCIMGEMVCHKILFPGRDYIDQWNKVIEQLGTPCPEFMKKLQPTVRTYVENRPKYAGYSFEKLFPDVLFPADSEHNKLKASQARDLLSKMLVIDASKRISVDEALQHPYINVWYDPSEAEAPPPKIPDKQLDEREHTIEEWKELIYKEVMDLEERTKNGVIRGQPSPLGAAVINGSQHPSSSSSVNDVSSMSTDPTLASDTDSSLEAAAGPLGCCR", "assay": "Selectivity interaction (Upstate Kinase Profiler service (Millipore)) EUB0000056c MAPK8", "settings": "at 1 µM"}, "[6]": {"target": "STE20-like serine/threonine-protein kinase (Homo sapiens, UniProt Q9H2G2)", "settings": "at 10 µM"}, "[7]": {"target": "Protein arginine N-methyltransferase 6 (Homo sapiens, UniProt Q96LA8)", "sequence (Q96LA8 whole entry)": "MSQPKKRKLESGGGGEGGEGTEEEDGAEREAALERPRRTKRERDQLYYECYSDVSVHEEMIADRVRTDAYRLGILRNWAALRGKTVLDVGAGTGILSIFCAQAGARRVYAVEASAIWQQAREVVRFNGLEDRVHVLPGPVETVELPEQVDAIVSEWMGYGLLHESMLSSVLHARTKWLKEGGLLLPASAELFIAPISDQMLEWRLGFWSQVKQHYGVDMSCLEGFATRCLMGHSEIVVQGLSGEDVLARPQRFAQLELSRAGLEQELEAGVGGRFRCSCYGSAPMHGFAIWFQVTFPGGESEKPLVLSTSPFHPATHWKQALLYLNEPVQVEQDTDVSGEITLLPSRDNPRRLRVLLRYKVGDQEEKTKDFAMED", "assay": "Selectivity interaction (Scintillation proximity assays) EUB0000255b PRMT6"}, "[8]": {"target": "Serine/threonine-protein kinase mTOR (Homo sapiens, UniProt P42345)", "assay": "Selectivity interaction (KinomeScan (DiscoverX)) EUB0001049a MTOR", "settings": "at 1 µM"}, "[9]": {"target": "Protein kinase C eta type (Homo sapiens) (UniProt P24723)", "sequence (P24723 whole entry)": "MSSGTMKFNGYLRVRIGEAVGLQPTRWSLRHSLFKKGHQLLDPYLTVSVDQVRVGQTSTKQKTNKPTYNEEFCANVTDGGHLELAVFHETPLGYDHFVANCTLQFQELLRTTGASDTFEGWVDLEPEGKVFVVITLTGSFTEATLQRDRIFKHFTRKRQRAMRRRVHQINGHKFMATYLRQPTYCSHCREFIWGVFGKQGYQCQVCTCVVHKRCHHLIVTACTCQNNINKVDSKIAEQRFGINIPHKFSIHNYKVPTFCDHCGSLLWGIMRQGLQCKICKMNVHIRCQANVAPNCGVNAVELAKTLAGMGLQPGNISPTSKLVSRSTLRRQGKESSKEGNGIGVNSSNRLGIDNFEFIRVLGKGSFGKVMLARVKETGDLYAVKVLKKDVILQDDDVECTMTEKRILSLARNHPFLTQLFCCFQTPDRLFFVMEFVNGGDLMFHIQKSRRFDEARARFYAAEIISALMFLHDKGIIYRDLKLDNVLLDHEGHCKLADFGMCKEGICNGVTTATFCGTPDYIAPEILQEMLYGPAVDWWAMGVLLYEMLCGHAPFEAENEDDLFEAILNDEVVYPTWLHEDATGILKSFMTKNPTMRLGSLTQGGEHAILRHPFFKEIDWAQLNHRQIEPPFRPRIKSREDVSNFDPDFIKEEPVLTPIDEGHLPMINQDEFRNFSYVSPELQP", "assay": "Selectivity interaction (KinomeScan (DiscoverX)) EUB0001049a PRKCH", "settings": "at 1 µM"}, "[10]": {"target": "WD repeat-containing protein 5 (Homo sapiens) (UniProt P61964)", "assay": "Selectivity interaction (PWWP, WD40, and Tudor domain panel (DSLS measurements, literature)) EUB0000270b WDR5"}, "[11]": {"target": "Histone-lysine N-methyltransferase SUV39H2 (Homo sapiens) (UniProt Q9H5I1)", "sequence (Q9H5I1 whole entry)": "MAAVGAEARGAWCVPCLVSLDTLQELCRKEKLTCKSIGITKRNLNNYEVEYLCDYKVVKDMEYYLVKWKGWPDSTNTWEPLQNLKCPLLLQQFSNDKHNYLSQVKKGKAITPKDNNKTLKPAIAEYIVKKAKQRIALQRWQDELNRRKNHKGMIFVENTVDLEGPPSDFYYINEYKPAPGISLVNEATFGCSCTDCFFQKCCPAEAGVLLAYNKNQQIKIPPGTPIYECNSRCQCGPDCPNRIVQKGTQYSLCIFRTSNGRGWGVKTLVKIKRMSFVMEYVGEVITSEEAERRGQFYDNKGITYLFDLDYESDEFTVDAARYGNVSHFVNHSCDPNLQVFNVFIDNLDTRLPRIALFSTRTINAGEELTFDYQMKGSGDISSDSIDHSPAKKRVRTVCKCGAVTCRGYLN", "assay": "Selectivity interaction (Transferase panel (protein, RNA, and DNA methyltransferases. and EP300 (acetyltransferase))) EUB0000270b SUV39H2"}, "[12]": {"target": "T1, Tyrosine-protein kinase JAK3 (Homo sapiens) (UniProt P52333)", "T1 sequence (whole entry)": "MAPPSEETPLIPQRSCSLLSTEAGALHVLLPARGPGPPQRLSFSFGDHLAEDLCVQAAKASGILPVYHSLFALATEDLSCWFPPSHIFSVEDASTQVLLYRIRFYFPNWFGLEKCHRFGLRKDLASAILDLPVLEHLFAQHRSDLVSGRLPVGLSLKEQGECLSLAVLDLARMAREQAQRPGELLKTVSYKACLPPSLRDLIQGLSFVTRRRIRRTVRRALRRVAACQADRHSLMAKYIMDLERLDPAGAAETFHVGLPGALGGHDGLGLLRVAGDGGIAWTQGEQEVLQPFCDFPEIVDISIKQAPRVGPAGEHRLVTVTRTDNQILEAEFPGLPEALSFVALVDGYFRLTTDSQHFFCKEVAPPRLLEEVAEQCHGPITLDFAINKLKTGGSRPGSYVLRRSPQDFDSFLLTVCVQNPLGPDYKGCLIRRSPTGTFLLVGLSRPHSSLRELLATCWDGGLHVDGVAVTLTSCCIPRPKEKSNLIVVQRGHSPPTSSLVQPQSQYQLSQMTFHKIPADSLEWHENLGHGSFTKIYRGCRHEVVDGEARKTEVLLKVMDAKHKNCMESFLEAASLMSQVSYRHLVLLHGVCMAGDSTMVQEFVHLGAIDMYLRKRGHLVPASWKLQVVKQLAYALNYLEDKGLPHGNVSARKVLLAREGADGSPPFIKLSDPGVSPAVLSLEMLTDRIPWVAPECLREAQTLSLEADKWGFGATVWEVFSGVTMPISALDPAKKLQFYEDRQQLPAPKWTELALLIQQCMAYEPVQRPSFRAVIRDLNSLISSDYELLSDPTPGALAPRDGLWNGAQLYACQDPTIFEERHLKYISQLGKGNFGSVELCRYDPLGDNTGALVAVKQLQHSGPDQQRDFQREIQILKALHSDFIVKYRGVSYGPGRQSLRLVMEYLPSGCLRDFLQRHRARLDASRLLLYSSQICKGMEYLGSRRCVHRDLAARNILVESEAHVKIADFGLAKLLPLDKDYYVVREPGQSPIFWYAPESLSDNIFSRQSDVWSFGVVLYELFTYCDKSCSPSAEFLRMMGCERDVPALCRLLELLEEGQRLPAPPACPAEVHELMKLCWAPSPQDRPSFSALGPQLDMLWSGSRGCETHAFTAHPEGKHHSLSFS", "assay": "Selectivity interaction (KinomeScan (DiscoverX)) EUB0000229b JAK3", "settings": "at 10 µM"}, "[13]": {"target": "Serine/threonine-protein kinase MRCK alpha (Homo sapiens) (UniProt Q5VT25)", "assay": "Selectivity interaction (KinomeScan (DiscoverX)) EUB0000229b CDC42BPA", "settings": "at 10 µM"}, "[14]": {"target": "TRAF2 and NCK-interacting protein kinase (Homo sapiens) (UniProt Q9UKE5)", "sequence (Q9UKE5 whole entry, looked up)": "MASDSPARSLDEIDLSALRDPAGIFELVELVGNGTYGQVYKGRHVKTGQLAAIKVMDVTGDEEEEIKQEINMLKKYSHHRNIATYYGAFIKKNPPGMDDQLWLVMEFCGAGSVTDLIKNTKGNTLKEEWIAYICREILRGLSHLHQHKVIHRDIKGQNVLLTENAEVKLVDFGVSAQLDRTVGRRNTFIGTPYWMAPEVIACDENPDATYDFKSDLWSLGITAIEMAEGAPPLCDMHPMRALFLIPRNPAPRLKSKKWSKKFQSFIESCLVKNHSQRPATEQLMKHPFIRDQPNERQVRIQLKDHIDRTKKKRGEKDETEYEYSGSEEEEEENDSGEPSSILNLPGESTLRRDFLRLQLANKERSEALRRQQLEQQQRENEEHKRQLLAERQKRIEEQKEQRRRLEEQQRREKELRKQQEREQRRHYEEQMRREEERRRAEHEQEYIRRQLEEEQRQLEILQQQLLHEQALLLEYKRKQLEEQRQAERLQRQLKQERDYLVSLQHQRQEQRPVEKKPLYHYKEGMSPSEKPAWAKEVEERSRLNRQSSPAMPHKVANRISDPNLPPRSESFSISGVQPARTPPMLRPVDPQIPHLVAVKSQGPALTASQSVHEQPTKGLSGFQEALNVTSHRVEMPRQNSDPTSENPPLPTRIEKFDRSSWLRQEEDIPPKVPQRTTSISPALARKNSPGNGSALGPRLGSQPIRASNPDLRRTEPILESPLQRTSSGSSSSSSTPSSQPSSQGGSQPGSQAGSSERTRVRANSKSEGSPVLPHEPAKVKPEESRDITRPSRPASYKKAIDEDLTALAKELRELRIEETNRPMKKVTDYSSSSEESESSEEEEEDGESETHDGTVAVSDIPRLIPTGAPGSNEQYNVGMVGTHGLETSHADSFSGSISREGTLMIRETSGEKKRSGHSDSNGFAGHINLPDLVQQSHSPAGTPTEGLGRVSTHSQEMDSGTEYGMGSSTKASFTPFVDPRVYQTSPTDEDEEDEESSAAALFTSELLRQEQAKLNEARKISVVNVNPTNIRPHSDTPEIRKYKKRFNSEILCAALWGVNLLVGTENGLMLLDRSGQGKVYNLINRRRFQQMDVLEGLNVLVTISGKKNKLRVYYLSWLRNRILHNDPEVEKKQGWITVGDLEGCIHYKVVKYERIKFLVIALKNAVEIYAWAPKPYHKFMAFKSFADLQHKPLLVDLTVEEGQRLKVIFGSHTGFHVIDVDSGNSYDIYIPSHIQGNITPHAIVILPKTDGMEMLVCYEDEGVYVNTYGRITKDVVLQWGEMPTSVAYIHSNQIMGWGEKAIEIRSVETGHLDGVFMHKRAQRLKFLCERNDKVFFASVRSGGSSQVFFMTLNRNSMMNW", "settings": "at 10 µM"}, "[15]": {"test_system": "Tyrosine-protein kinase ABL1 (Homo sapiens), P00519 [Q252H]", "settings": "at 10 µM"}, "[16]": {"target": "Serine/threonine-protein kinase 38 (Homo sapiens) (UniProt Q15208)", "assay": "Selectivity interaction (ActivX KiNativ screen (ex vivo kinase selectivity in human PBMCs)) EUB0001619a STK38", "format": "cell-based", "settings": "PBMC, at 1 µM"}, "[17]": {"target": "Phosphatidylinositol 4-phosphate 5-kinase type-1 alpha (Homo sapiens) (UniProt Q99755)", "sequence (Q99755 whole entry)": "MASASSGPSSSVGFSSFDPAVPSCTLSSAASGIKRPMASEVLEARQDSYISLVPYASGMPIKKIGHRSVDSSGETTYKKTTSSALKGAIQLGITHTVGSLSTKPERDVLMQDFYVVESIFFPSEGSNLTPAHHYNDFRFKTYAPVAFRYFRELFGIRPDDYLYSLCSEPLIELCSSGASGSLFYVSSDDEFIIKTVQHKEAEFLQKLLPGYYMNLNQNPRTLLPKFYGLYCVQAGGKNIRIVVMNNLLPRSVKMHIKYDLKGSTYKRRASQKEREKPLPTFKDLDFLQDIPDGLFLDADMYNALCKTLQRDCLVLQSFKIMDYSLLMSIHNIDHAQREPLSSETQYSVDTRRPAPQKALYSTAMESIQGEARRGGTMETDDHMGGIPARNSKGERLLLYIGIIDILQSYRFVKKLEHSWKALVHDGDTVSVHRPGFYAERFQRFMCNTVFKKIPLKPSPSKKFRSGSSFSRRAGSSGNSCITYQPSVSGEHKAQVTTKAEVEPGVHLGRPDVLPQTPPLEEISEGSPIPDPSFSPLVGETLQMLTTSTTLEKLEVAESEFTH", "assay": "Selectivity interaction (KinomeScan (DiscoverX)) EUB0001619a PIP5K1A", "settings": "at 1 µM"}, "[18]": {"target": "T2, Serine/threonine-protein kinase STK11 (Homo sapiens) (UniProt Q15831)", "T2 sequence (whole entry)": "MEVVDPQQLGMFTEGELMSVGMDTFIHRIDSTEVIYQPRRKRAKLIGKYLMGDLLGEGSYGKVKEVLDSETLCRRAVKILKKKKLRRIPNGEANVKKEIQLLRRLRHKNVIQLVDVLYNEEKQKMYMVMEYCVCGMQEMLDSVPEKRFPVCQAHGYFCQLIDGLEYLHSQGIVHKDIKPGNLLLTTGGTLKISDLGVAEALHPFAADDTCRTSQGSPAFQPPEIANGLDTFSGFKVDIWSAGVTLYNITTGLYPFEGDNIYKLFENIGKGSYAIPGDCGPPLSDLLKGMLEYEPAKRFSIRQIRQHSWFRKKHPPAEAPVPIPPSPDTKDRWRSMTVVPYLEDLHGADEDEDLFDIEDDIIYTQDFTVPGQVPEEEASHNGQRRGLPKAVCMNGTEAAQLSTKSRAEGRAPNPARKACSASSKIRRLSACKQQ", "assay": "Selectivity interaction (ActivX KiNativ screen (ex vivo kinase selectivity in human PBMCs)) EUB0001619a STK11", "format": "cell-based", "settings": "PBMC, at 1 µM"}},
  "data": [
    {"smiles": "Cn1cc(-n2cnc3c(NCc4nc5cc(Cl)c(Cl)cc5[nH]4)nc(N4CCOCC4)nc32)cn1", "values": [
      {"measurement": "% of inhibition", "setting": "[1]", "value": -36, "unit": "%"},
      {"measurement": "% of control", "setting": "[2]", "value": 1.33, "unit": "%"}
    ]},
    {"smiles": "CNC(=O)Nc1ccc(-c2nc(N3CC4CCC(C3)O4)c3cnn(C4CCC5(CC4)OCCO5)c3n2)cc1", "values": [
      {"measurement": "% of inhibition", "setting": "[3]", "value": 13, "unit": "%"},
      {"measurement": "% of control", "setting": "[4]", "value": 98, "unit": "%"}
    ]},
    {"smiles": "Cc1ccc(-c2ccc3c(ccc4sc5c(c43)NC[C@@H](C)NC5=O)n2)cn1", "values": [
      {"measurement": "% of inhibition", "setting": "[5]", "value": 10, "unit": "%"}
    ]},
    {"smiles": "CCN(CC)CCCCNc1ncc2cc(-c3cc(OC)cc(OC)c3)c(NC(=O)NC(C)(C)C)nc2n1", "values": [
      {"measurement": "% of control", "setting": "[6]", "value": 100, "unit": "%"}
    ]},
    {"smiles": "COCCN1CCC(c2cc(CN(C)C(=O)c3cccc(Oc4ccccc4)c3)ccn2)CC1", "values": [
      {"measurement": "IC50", "setting": "[7]", "value": "> 10", "unit": "µM"}
    ]},
    {"smiles": "COc1cc(Nc2nc(C)cc(-c3cnn4nc(OC)ccc34)n2)cc(C(F)(F)F)c1", "values": [
      {"measurement": "% of control", "setting": "[8]", "value": 100, "unit": "%"},
      {"measurement": "% of control", "setting": "[9]", "value": 100, "unit": "%"}
    ]},
    {"smiles": "Cc1cc(CN)cc(C)c1-c1ncn(C)c1-c1cncn1C", "values": [
      {"measurement": "dTagg", "setting": "[10]", "value": -0.7, "unit": "K"},
      {"measurement": "% activity", "setting": "[11]; at 1 µM", "value": "> 90", "unit": "%"},
      {"measurement": "% activity", "setting": "[11]; at 10 µM", "value": "> 80", "unit": "%"}
    ]},
    {"smiles": "COc1cc(N(C)c2ccnc3ccc(C(F)(F)F)cc23)cc(OC)c1OC", "values": [
      {"measurement": "% binding", "setting": "[12]", "value": 99, "unit": "%"},
      {"measurement": "% binding", "setting": "[13]", "value": 100, "unit": "%"}
    ]},
    {"smiles": "Cc1cc([C@@H](C)Nc2ccccc2C(=O)O)c2nc(N3CCOCC3)cc(=O)n2c1", "note": "[AZD-6482]", "values": [
      {"measurement": "% of control", "setting": "[14]", "value": 98, "unit": "%"},
      {"measurement": "% of control", "setting": "[15]", "value": 100, "unit": "%"}
    ]},
    {"smiles": "N#Cc1cccc(-c2c[nH]c3ncnc(N4CCOCC4)c23)c1", "values": [
      {"measurement": "% of inhibition", "setting": "[16]", "value": 4, "unit": "%"},
      {"measurement": "% of control", "setting": "[17]", "value": 20, "unit": "%"},
      {"measurement": "% of inhibition", "setting": "[18]", "value": 17, "unit": "%"}
    ]}
  ]
}
